Measured values published in ChEMBL document CHEMBL5537171, “Design, Synthesis, and Biological Evaluation of Potent and Selective PROTAC Degraders of Oncogenic KRASG12D” (J Med Chem, 2024).
Calls of active or inactive are those of the source. No cut-off for these calls is given here.

Columns and labels:
[1] = Cmax in BALB/c mouse at 10 mg/kg, sc by LC-MS/MS analysis; assay type: ADME, organism-based; details: in vivo
[2] = Half life in BALB/c mouse at 10 mg/kg, sc by LC-MS/MS analysis; assay type: ADME, organism-based; details: in vivo
[3] = system: von Hippel-Lindau disease tumor suppressor/GTPase KRas (Homo sapiens), P01116+P40337 [G12D]; test: PROTAC activity at VHL/KRAS G12D mutant in human ASPC1 cells assessed as decrease in pERK level at 1 uM incubated for 6 hrs followed by compound washout measured upto 72 hrs by Western blot analysis; assay type: cell-based
von Hippel-Lindau disease tumor suppressor/GTPase KRas (Homo sapiens), P01116+P40337 [G12D], sequence (P01116 whole entry G12D): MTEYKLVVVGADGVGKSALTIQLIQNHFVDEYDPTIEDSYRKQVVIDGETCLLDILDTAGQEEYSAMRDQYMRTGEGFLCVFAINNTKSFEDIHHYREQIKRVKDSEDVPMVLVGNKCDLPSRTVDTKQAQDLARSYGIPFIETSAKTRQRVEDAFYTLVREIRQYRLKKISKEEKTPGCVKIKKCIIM
von Hippel-Lindau disease tumor suppressor/GTPase KRas (Homo sapiens), P01116+P40337 [G12D], sequence (P40337 whole entry partner): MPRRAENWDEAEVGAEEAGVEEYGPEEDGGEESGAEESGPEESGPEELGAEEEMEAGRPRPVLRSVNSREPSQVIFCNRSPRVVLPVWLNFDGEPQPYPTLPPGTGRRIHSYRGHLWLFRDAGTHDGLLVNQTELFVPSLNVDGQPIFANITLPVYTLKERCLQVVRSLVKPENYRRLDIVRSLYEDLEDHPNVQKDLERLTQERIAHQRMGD

[4] = target: T1, von Hippel-Lindau disease tumor suppressor/GTPase KRas (Homo sapiens, UniProt P01116+P40337, G12D); test: PROTAC activity at VHL/KRAS G12D mutant in human ASPC1 cells assessed as induction of protein degradation incubated for 24 hrs by Western blot analysis; assay type: cell-based; details: read-out: DC50
T1 sequence (P01116 whole entry G12D, stated change not applied): as the sequence (P01116 whole entry G12D) above
T1 sequence (P40337 whole entry, stated change not applied): as the sequence (P40337 whole entry partner) above

[5] = system: von Hippel-Lindau disease tumor suppressor/GTPase KRas (Homo sapiens), P01116+P40337 [G12D]; test: PROTAC activity at VHL/KRAS G12D mutant in human ASPC1 cells assessed as induction of protein degradation incubated for 24 hrs by Western blot analysis relative to control; assay type: cell-based
[6] = Competitive binding affinity to His-tagged VHL/Elongin C/Elongin B/KRAS G12D mutant (unknown origin) by FP assay; parameters: species or system Homo sapiens
[7] = Cooperativity factor alpha, ratio of IC50 for His-tagged VHL/Elongin C/Elongin B (unknown origin) to IC50 for His-tagged VHL/Elongin C/Elongin B/KRAS (unknown origin)
[8] = Drug uptake in human ASPC1 cells at 10 uM incubated for 1 hr by MS analysis; assay type: ADME, cell-based; details: aspc1, 1 h
[9] = system: von Hippel-Lindau disease tumor suppressor/GTPase KRas (Homo sapiens), P01116+P40337 [G12D]; test: PROTAC activity at VHL/KRAS G12D mutant in human ASPC1 cells assessed as induction protein degradation at 1 uM measured for 2 to 24 hrs by Western blot analysis; assay type: cell-based; details: time 2-24 hrs
[10] = system: von Hippel-Lindau disease tumor suppressor/GTPase KRas (Homo sapiens), P01116+P40337 [G12D]; test: PROTAC activity at VHL/KRAS G12D mutant in human ASPC1 cells assessed as induction protein degradation at 1 uM measured for 6 hrs by Western blot analysis relative to control; assay type: cell-based
Homo sapiens = species on record: Homo sapiens; test: Binding affinity to His-tagged VHL/Elongin C/Elongin B/GST-tagged KRAS G12D mutant (unknown origin) incubated for 1 hr by HTRF assay
[11] = system: von Hippel-Lindau disease tumor suppressor/GTPase KRas (Homo sapiens), P01116+P40337 [G12D]; test: PROTAC activity at VHL/KRAS G12D mutant in human ASPC1 cells assessed as induction of protein degradation at 1 uM pretreated with (2S,4R)-1-((S)-2-acetamido-3,3-dimethylbutanoyl)-4-hydroxy-N-((S)-1-(4-(4-methylthiazol-5-yl)phenyl)ethyl)pyrrolidine-2-carboxamide followed by compound treatment for 6 hrs by Western blot analysis; assay type: cell-based
[12] = system: von Hippel-Lindau disease tumor suppressor/GTPase KRas (Homo sapiens), P01116+P40337 [G12D]; test: PROTAC activity at VHL/KRAS G12D mutant in human ASPC1 cells assessed as induction of protein degradation at 1 uM pretreated with 4-(4-((1R,5S)-3,8-diazabicyclo[3.2.1]octan-3-yl)-8-fluoro-2-(((S)-1-methylpyrrolidin-2-yl)methoxy)pyrido[4,3-d]pyrimidin-7-yl)-5-ethyl-6-fluoronaphthalen-2-ol followed by compound treatment for 6 hrs by Western blot analysis; assay type: cell-based
[13] = system: von Hippel-Lindau disease tumor suppressor/GTPase KRas (Homo sapiens), P01116+P40337 [G12D]; test: PROTAC activity at VHL/KRAS G12D mutant in human ASPC1 cells assessed as induction of protein degradation at 1 uM pretreated with MG-132 followed by compound treatment for 6 hrs by Western blot analysis; assay type: cell-based
[14] = system: von Hippel-Lindau disease tumor suppressor/GTPase KRas (Homo sapiens), P01116+P40337 [G12D]; test: PROTAC activity at VHL/KRAS G12D mutant in human ASPC1 cells assessed as induction of protein degradation at 1 uM pretreated with chloroquine followed by compound treatment for 6 hrs by Western blot analysis; assay type: cell-based
[15] = system: von Hippel-Lindau disease tumor suppressor/GTPase KRas (Homo sapiens), P01116+P40337 [G12D]; test: PROTAC activity at VHL/KRAS G12D mutant in human ASPC1 cells assessed as induction of protein degradation at 0.1 uM incubated for 24 hrs by Western blot analysis relative to control; assay type: cell-based
[16] = system: von Hippel-Lindau disease tumor suppressor/GTPase KRas (Homo sapiens), P01116+P40337 [G12D]; test: PROTAC activity at VHL/KRAS G12D mutant in human ASPC1 cells assessed as induction of protein degradation at 1 uM incubated for 24 hrs by Western blot analysis relative to control; assay type: cell-based
[17] = system: von Hippel-Lindau disease tumor suppressor/GTPase KRas (Homo sapiens), P01116+P40337 [G12V]; test: PROTAC activity at VHL/KRAS G12V mutant in human SK-CO-1 cells assessed as induction of protein degradation at 0.1 uM incubated for 24 hrs by Western blot analysis; assay type: cell-based
[18] = system: von Hippel-Lindau disease tumor suppressor/GTPase KRas (Homo sapiens), P01116+P40337 [G12S]; test: PROTAC activity at VHL/KRAS G12S mutant in human A549 cells assessed as induction of protein degradation at 0.1 uM incubated for 24 hrs by Western blot analysis; assay type: cell-based
[19] = system: von Hippel-Lindau disease tumor suppressor/GTPase KRas (Homo sapiens), P01116+P40337 [G12R]; test: PROTAC activity at VHL/KRAS G12R mutant in human CAL-62 cells assessed as induction of protein degradation at 0.1 uM incubated for 24 hrs by Western blot analysis; assay type: cell-based
ASPC1 [20] = test: Downregulation of KRT5 level in human ASPC1 cells at 0.1 uM incubated for 6 hrs by DIA-based proteomic analysis; assay type: functional, cell-based
[21] = target: T1, von Hippel-Lindau disease tumor suppressor/GTPase KRas; test: PROTAC activity at VHL/KRAS G12D mutant in human SNU1 cells assessed as induction of protein degradation incubated for 24 hrs by Western blot analysis; assay type: cell-based
SNU1 = test: Antiproliferative activity against human SNU1 cells harboring KRAS G12D mutant assessed as inhibition of cell viability incubated for 5 days by Cell Titer Glo assay; assay type: functional, cell-based; details: SNU1, 120 h
AGS = test: Antiproliferative activity against human AGS cells harboring KRAS G12D mutant assessed as inhibition of cell viability incubated for 5 days by Cell Titer Glo assay; assay type: functional, cell-based; details: 120 h
[22] = system: von Hippel-Lindau disease tumor suppressor/GTPase KRas (Homo sapiens), P01116+P40337 [G12D]; test: PROTAC activity at VHL/KRAS G12D mutant in human ASPC1 cells assessed as induction of protein degradation at 1 uM incubated for 6 hrs followed by compound washout measured after 72 hrs by Western blot analysis; assay type: cell-based
[23] = AUC (infinity) in BALB/c mouse at 10 mg/kg, sc by LC-MS/MS analysis; assay type: ADME, organism-based; details: in vivo
[24] = MRT (infinity) in BALB/c mouse at 10 mg/kg, sc by LC-MS/MS analysis; assay type: ADME, organism-based; details: in vivo
[25] = system: von Hippel-Lindau disease tumor suppressor/GTPase KRas (Homo sapiens), P01116+P40337 [G12D]; test: In vivo PROTAC activity at VHL/KRAS G12D mutant in human ASPC1 cells xenografted in BALB/c nude mouse assessed as induction of protein degradation at 50 mg/kg, sc measured for >24 hrs; assay type: functional, organism-based
ASPC1 [26] = test: Antitumor activity in human ASPC1 cells xenografted in BALB/c nude mouse assessed as tumor growth inhibition at 50 mg/kg, sc administered once per three days for 22 days relative to control; assay type: functional; details: ASPC1, 528 h, time 22 day, read-out: TGI
[27] = Toxicity in BALB/c nude mouse xenografted with human ASPC1 cells assessed as notable toxic symptoms at 50 mg/kg, sc for 22 days; assay type: organism-based; details: in vivo, 528 h, time 22 day
ASPC1 [28] = test: Antitumor activity in human ASPC1 cells xenografted in BALB/c nude mouse assessed as tumor growth inhibition at 30 mg/kg, ip bid for 22 days relative to control; assay type: functional; details: ASPC1, 528 h, time 22 day, read-out: TGI

Question: With `CCc1c(F)ccc2cc(O)cc(-c3ncc4c(N5C[C@H]6CC[C@@H](C5)N6)nc(OC[C@@H]5CCCN5CCCCOCC(=O)N[C@H](C(=O)N5C[C@H](O)C[C@H]5C(=O)N[C@@H](C)c5ccc(-c6scnc6C)cc5)C(C)(C)C)nc4c3F)c12` as the molecule, how does the Cmax [1] read?
Answer: 2080 ng/mL

Question: What about the half-life [2] of the same molecule?
Answer: 8.7 h

Question: What about the Activity [3] of the same molecule?
Answer: Active

Question: What about the DC50 [4] of the same molecule?
Answer: 38.1 nM

Question: What about the Emax [5] of the same molecule?
Answer: 98.9%

Question: What about the IC50 [6] of the same molecule?
Answer: 18.8 nM

Question: What about the Ratio IC50 [7] of the same molecule?
Answer: 15.9

Question: And the Drug uptake [8]?
Answer: Active

Question: What about the Activity [9] of the same molecule?
Answer: Active

Question: And the Activity [10]?
Answer: 95%

Question: And the Activity (Homo sapiens)?
Answer: Active

Question: What about the Activity [11] of the same molecule?
Answer: inactive

Question: And the Activity [12]?
Answer: inactive

Question: What about the Activity [13] of the same molecule?
Answer: inactive

Question: And the Activity [14]?
Answer: Active

Question: And the Activity [15]?
Answer: 75.8%

Question: What about the Activity [16] of the same molecule?
Answer: 95.1%

Question: And the Activity [17]?
Answer: inactive

Question: And the Activity [18]?
Answer: inactive

Question: And the Activity [19]?
Answer: inactive

Question: What about the Activity (ASPC1 [20]) of the same molecule?
Answer: Active

Question: What about the DC50 [21] of the same molecule?
Answer: 19.8 nM

Question: What about the IC50 (SNU1) of the same molecule?
Answer: 43.5 nM

Question: And the IC50 (AGS)?
Answer: 31.4 nM

Question: And the Activity [22]?
Answer: Active

Question: What about the AUC(0-inf) [23] of the same molecule?
Answer: 5060 ng·h/mL

Question: And the MRT inf [24]?
Answer: 9.33 h

Question: What about the Activity [25] of the same molecule?
Answer: Active

Question: What about the inhibition in vivo at 50 mg/kg (ASPC1 [26]) of the same molecule?
Answer: 50.9%

Question: What about the Activity [27] of the same molecule?
Answer: Non-Toxic

Question: What about the inhibition in vivo at 30 mg/kg (ASPC1 [28]) of the same molecule?
Answer: 89.1%
